Assay results taken from the supplement of paper PMC10307832.

Assays:
Assay in all cases: relative viability (nuclei count vs DMSO), 5 days (fraction); higher = more cells survive
[1] = compound: CCCS(=O)(=O)Nc1ccc(F)c(C(=O)c2c[nH]c3ncc(-c4ccc(Cl)cc4)cc23)c1F [Vemurafenib] + CC(=O)c1c(C)c2cnc(Nc3ccc(N4CCNCC4)cn3)nc2n(C2CCCC2)c1=O [Palbociclib] (partner 0.5 µM)
How it was run: (§1)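 For relative viability, nuclei counts in treated wells were divided by those in vehicle wells. Lung cancer cell lines had been pin-tool dosed in 1536-well plates the day after seeding and cultured for 5 days, then fixed and stained in one step (final 0.05% Triton X-100, 1% formaldehyde, 1 ug/ml Hoechst) and imaged at 4×. Doses were one drug alone or a fixed anchor-drug dose plus five library-drug doses (not always all listed) in √10 steps, and values are duplicate-plate medians.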

Alpelisib + Pictilisib = compound: Cc1nc(NC(=O)N2CCC[C@H]2C(N)=O)sc1-c1ccnc(C(C)(C)C(F)(F)F)c1 [Alpelisib] + CS(=O)(=O)N1CCN(Cc2cc3nc(-c4cccc5[nH]ncc45)nc(N4CCOCC4)c3s2)CC1 [Pictilisib] (partner 1 µM)
How it was run: as §1

Alpelisib + Linsitinib = compound: Cc1nc(NC(=O)N2CCC[C@H]2C(N)=O)sc1-c1ccnc(C(C)(C)C(F)(F)F)c1 [Alpelisib] + C[C@]1(O)C[C@@H](c2nc(-c3ccc4ccc(-c5ccccc5)nc4c3)c3c(N)nccn32)C1 [Linsitinib] (partner 1 µM)
How it was run: as §1

Alpelisib + Dasatinib = compound: Cc1nc(NC(=O)N2CCC[C@H]2C(N)=O)sc1-c1ccnc(C(C)(C)C(F)(F)F)c1 [Alpelisib] + Cc1nc(Nc2ncc(C(=O)Nc3c(C)cccc3Cl)s2)cc(N2CCN(CCO)CC2)n1 [Dasatinib] (partner 0.075 µM)
How it was run: as §1

Cell Line	relative viability ([1]; first compound 0.3162 µM)	relative viability ([1]; first compound 1 µM)	relative viability (Alpelisib + Pictilisib; first compound 0.04 µM)	relative viability (Alpelisib + Pictilisib; first compound 0.1265 µM)	relative viability (Alpelisib + Pictilisib; first compound 0.4 µM)	relative viability (Alpelisib + Pictilisib; first compound 1.265 µM)	relative viability (Alpelisib + Pictilisib; first compound 4 µM)	relative viability (Alpelisib + Linsitinib; first compound 0.04 µM)	relative viability (Alpelisib + Linsitinib; first compound 0.1265 µM)	relative viability (Alpelisib + Linsitinib; first compound 0.4 µM)	relative viability (Alpelisib + Linsitinib; first compound 1.265 µM)	relative viability (Alpelisib + Linsitinib; first compound 4 µM)	relative viability (Alpelisib + Dasatinib; first compound 0.04 µM)	relative viability (Alpelisib + Dasatinib; first compound 0.1265 µM)	relative viability (Alpelisib + Dasatinib; first compound 0.4 µM)	relative viability (Alpelisib + Dasatinib; first compound 1.265 µM)	relative viability (Alpelisib + Dasatinib; first compound 4 µM)	relative viability ([1]; first compound 0.03162 µM)	relative viability ([1]; first compound 0.1 µM)
PC-3 [JPC-3]	0.485	0.565	0.76	0.715	0.737	0.767	0.676	0.948	0.974	1.03	0.883	0.933	0.948	0.928	0.993	0.903	0.907	–	–
PC-14	0.504	0.537	0.703	0.858	0.898	0.6	0.611	0.91	0.894	0.98	0.856	0.816	0.256	0.243	0.23	0.221	0.202	0.449	–
RERF-LC-KJ	1.07	1.11	0.557	0.583	0.559	0.268	0.46	0.816	0.878	0.823	0.734	0.749	0.766	0.733	0.758	0.475	0.541	1.03	0.968
SK-LU-1	0.368	0.337	0.592	0.484	0.656	0.594	0.536	1.22	1.14	1.27	0.939	1.06	0.141	0.149	0.133	0.128	0.0997	0.388	0.377
SK-MES-1	0.314	0.318	0.361	0.39	0.467	0.333	0.316	1.13	1.04	1.22	0.939	0.99	0.332	0.334	0.438	0.17	0.191	0.314	–
SW 1573	0.382	0.383	0.498	0.506	0.557	0.459	0.352	0.919	0.826	0.725	0.685	0.547	0.438	0.458	0.672	0.364	0.202	0.203	0.435
